Values of other authors in patent US20100297195A1, “CONTROLLED RELEASE LAMOTRIGINE FORMULATIONS” (RANBAXY LABORATORIES LIMITED, priority 2009, published 2010).

Settings: oral administration

Nc1nnc(-c2cccc(Cl)c2Cl)c(N)n1 [Lamotrigine, 3,5-diamino-6-(2,3-dichlorophenyl)-1,2,4-triazine]
absolute bioavailability: 98% | effect of food on bioavailability: not affected by food
